Consider 34 compounds from paper PMC12735704, “Synthesis of Substituted 1H-Phenalen-1-ones and Nitrogen-Containing Heterocyclic Analogues as Potential Anti-Plasmodial Agents” (Molecules, 2025).

In experiment [1] the test system is Chloroquine-resistant P. falciparum FCR3. Briefly: In vitro antimalarial assay (parasitemia by blood smear, 48 h with compound). It counts as cell-based, Plasmodium falciparum. The note with it: mean ± SD of three determinations. The procedure:
• In vitro antimalarial assay.
FCR-3 chloroquine-resistant strain of P. falciparum (kindly provided by Dr. Fandeur, Pasteur Institute, Cayenne, France) was cultured on glucose-enriched RPMI 1640 medium, supplemented with 10% human serum at 37 °C. After 24 h of incubation at 37 °C, the medium was replaced by fresh medium supplemented with the compound to be evaluated (initial a screening used a concentration of 10 μg/mL), and incubation was continued for a further 48 h. On the third day of the test, a blood smear was taken from each well, and parasitemia was calculated for each concentration of sample compared to the control. Chloroquine (0.1 μg/mL) was used as a positive control. IC50 values were determined graphically by plotting concentrations (0.01–10 μg/mL) versus percent inhibition. All tests were performed in triplicate.

The subject of the next experiment is MCF-7 cells. The experiment is described as follows: Cytotoxicity study by MTT proliferation assay. As to conditions: 72 h; for MCF-7 % Inh ± DS (10 μM): inhibition of cell growth; for inhibition at 10 µM: Homo sapiens, MCF7, inhibition of cell growth, read-out: MCF-7 % Inh ± DS (10 μM). Type of experiment: cell-based. The procedure:
• Cytotoxicity study by MTT proliferation assay. MCF-7 cells were purchased from ATCC (Manassas, VA, USA) and cultured in DMEN containing 10% FBS. For 3-(4,5-dimethylthiazol-2-yl)-2,5-diphenyltetrazolium (MTT) (Sigma–Aldrich, St. Louis, MO, USA) analysis, cells were plated in 96-well plates at 10,000 cells/well. Twenty-four hours after plating, vehicle (0.1% DMSO, final concentration) or compound was added to cells at indicated doses. Seventy-two hours following compound addition, MTT was added to each well (0.5 mg/mL, final concentration) and plates were incubated for an additional 3 h at 37 °C. Medium was then aspirated and the formazan product was solubilized in SDS–HCl (20% SDS; HCl 0.02 M). The absorbance of each well was measured at 570 nm using a microplate reader (Sigma–Aldrich, St. Louis, MO, USA).

The subject of experiment [2] is Chloroquine-resistant P. falciparum FCR3. Briefly: In vitro antimalarial assay (parasitemia by blood smear, 48 h with compound). Type of experiment: cell-based, Plasmodium falciparum. The note with it: for antiplasmodium activity (in words): FCR3 strain, tested up to 10 µM.
Another experiment relates to Plasmodium falciparum. Set-up: method as in PMID 23985373. As to conditions: previously tested compounds; read-out: IC50 (antiplasmodial activity, previously tested compounds); cited from earlier work.
Where [3] appears, read: Plasmodium falciparum, FCR3, FCR3 strain.

Where two headings read alike, the source gives them in different places.

For the compound “2-((2,6-dimethylphenyl)amino)-2,3-dihydro-1H-phenalen-1-one [Compound 24]”, the half-inhibitory concentration (IC50) in experiment [1] (FCR3 strain) is over 10 µM. The “MCF-7 % Inh ± DS (10 μM)” value in the experiment on MCF-7 cells was found to be 7 ± 0.5%.
`COc1cccc2c1C(=O)c1c(O)c3c(c(O)c1C2=O)C[C@@](O)(C(=O)CO)C[C@@H]3O[C@H]1C[C@H](N)[C@H](O)[C@H](C)O1` [Adriamycin, reference compound]: in the experiment on MCF-7 cells, the inhibition at 10 µM is 63 ± 4.7%.
`CCN(CC)CCCC(C)Nc1ccnc2cc(Cl)ccc12` (centres unmarked) [Chloroquine, reference compound]: in experiment [2] (Plasmodium falciparum, FCR3, read-out: Chloroquine-Resistant P. falciparum FCR3 IC50 ± SD), the half-maximal inhibitory concentration (IC50) was 160 ± 20 nM.
Regarding `O=C1C=Cc2cccc3cccc1c23` [Compound 1, 1H-phenalen-1-one], the IC50 in experiment [1] (setting [3]) is 2.46 ± 0.08 µM. Also, the inhibition at 10 µM in the experiment on MCF-7 cells was 16 ± 0.4%.
Turning to `O=C1C=Cc2cccc3ccc(-c4ccccn4)c1c23` [Compound 1c], the IC50 in the experiment with Plasmodium falciparum was 21 µM.
`COc1ccc(C2=CC(=O)c3cccc4cccc2c34)cc1` [Compound 1d]: in the experiment with Plasmodium falciparum, the IC50 is 2.1 µM.
Take `O=C1C(Br)=Cc2cccc3cccc1c23` [Compound 2, 2-Bromo-1H-phenalen-1-one]: the IC50 in experiment [1] (FCR3 strain) is 0.7 ± 0.04 µM; in experiment [1] (setting [3]) it was under 1 µM. In the experiment with MCF-7 cells, the inhibition at 10 µM was 2 ± 0.7%.
As to `O=C1C(I)=Cc2cccc3cccc1c23` [Compound 3, 2-Iodo-1H-phenalen-1-one], the “antiplasmodium activity (in words)” value in experiment [2] is reported as “significant loss in antiplasmodium activity”. Besides, in experiment [1] (setting [3]), the IC50 was over 10 µM. Further, in the experiment on MCF-7 cells, the inhibition at 10 µM came out at 4 ± 0.4%.
Turning to `O=C1C(c2ccccc2)=Cc2cccc3cccc1c23` [Compound 4, 2-phenyl-1H-phenalen-1-one], the “antiplasmodium activity (in words)” value in experiment [2] was “significant loss in antiplasmodium activity”. The half-inhibitory concentration (IC50) in experiment [1] (setting [3]) was over 10 µM. Further, the inhibition at 10 µM with MCF-7 cells came out at 14 ± 0.8%.
For `N#Cc1ccc(C2=Cc3cccc4cccc(c34)C2=O)cc1` [Compound 5, 4-(1-oxo-1H-phenalen-2-yl)benzonitrile], the IC50 in experiment [1] (setting [3]) is over 10 µM. The inhibition at 10 µM in the experiment on MCF-7 cells turned out to be 12 ± 0.3%.
Taken in the same sequence, the figures for `O=C1C(c2ccc(F)cc2)=Cc2cccc3cccc1c23` [Compound 6, 2-(4-fluorophenyl)-1H-phenalen-1-one] were over 10 µM and 10 ± 2%.
As for `O=C1C(c2ccoc2)=Cc2cccc3cccc1c23` [Compound 7, 2-(3-furyl)-1H-phenalen-1-one], the “antiplasmodium activity (in words)” value in experiment [2] is listed as “significant loss in antiplasmodium activity”. The concentration for half-maximal inhibition (IC50) in experiment [1] (setting [3]) was over 10 µM. The inhibition at 10 µM in the experiment with MCF-7 cells worked out at 22 ± 0.2%.
`O=C1C=Cc2cccc3ccc(-c4ccccc4)c1c23` [Compound 9, 9-Phenyl-1H-phenalen-1-one]: in experiment [1] (setting [3]), the IC50 is over 10 µM. Also, the inhibition at 10 µM in the experiment with MCF-7 cells was 6 ± 0.1%.
As to `O=C1C=Cc2cccc3ccc(O)c1c23` [Compound 9-OH, 9-hydroxy-1H-phenalen-1-one], the “antiplasmodium activity (in words)” value in experiment [2] was “sub-micromolar activity”. Besides, the values for the concentration for half-maximal inhibition (IC50) in experiment [1] (FCR3 strain) and in experiment [1] (setting [3]) were 0.72 ± 0.06 µM and under 1 µM, respectively. Further, the inhibition at 10 µM with MCF-7 cells turned out to be 6 ± 0.7%.
As to `N#Cc1ccc(-c2ccc3cccc4c3c2C(=O)C=C4)cc1` [Compound 10, 4-(1-oxo-1H-phenalen-9-yl)benzonitrile], the “antiplasmodium activity (in words)” value in experiment [2] is reported as “detrimental to activity”. Moreover, the IC50 in experiment [1] (setting [3]) was over 10 µM. The inhibition at 10 µM with MCF-7 cells is 10 ± 1%.
Consider `O=C1C=Cc2cccc3ccc(-c4ccc(F)cc4)c1c23` [Compound 11, 9-(4-fluorophenyl)-1H-phenalen-1-one], for which the concentration for half-maximal inhibition (IC50) in experiment [1] (setting [3]) was over 10 µM. In addition, in the experiment with MCF-7 cells, the inhibition at 10 µM came out at 8 ± 0.2%.
Taken in the same sequence, the figures for `COc1ccc(-c2ccc3cccc4c3c2C(=O)C=C4)cc1` [Compound 12, 9-(4-methoxyphenyl)-1H-phenalen-1-one] were over 10 µM and 15 ± 0.3%.
For `COc1cccc(-c2ccc3cccc4c3c2C(=O)C=C4)c1` [Compound 13, 9-(3-methoxyphenyl)-1H-phenalen-1-one], the IC50 in experiment [1] (setting [3]) is over 10 µM. Moreover, the inhibition at 10 µM in the experiment with MCF-7 cells came to 12 ± 0.1%.
With `COc1ccccc1-c1ccc2cccc3c2c1C(=O)C=C3` [Compound 14, 9-(2-methoxyphenyl)-1H-phenalen-1-one], the IC50 in experiment [1] (setting [3]) is over 10 µM. Besides, the inhibition at 10 µM in the experiment on MCF-7 cells turned out to be 15 ± 0.2%.
In the case of `COc1ccc(Nc2ccc3cccc4c3c2C(=O)C=C4)cc1` [Compound 15, 9-[(4-methoxyphenyl)amino]-1H-phenalen-1-one], the half-maximal inhibitory concentration (IC50) in experiment [1] (setting [3]) was over 10 µM. Further, in the experiment on MCF-7 cells, the inhibition at 10 µM amounted to 1 ± 0.4%.
The corresponding values for `Cc1cccc(C)c1Nc1ccc2cccc3c2c1C(=O)C=C3` [Compound 16, 9-[(2,6-dimethylphenyl)amino]-1H-phenalen-1-one] are over 10 µM and 0%.
As for `O=C1C=Cc2cccc3ccc(Nc4ccc(Cl)cc4)c1c23` [Compound 17, 9-[(4-chlorophenyl)amino]-1H-phenalen-1-one], the IC50 in experiment [1] (setting [3]) is over 10 µM. In addition, in the experiment with MCF-7 cells, the inhibition at 10 µM came out at 12 ± 0.3%.
In the case of `N#Cc1ccc2cccc3c2c1C(=O)C=C3` [Compound 18, 1-oxo-1H-phenalene-9-carbonitrile], the “antiplasmodium activity (in words)” value in experiment [2] is reported as “most potent compound”. Further, the inhibition at 10 µM in the experiment on MCF-7 cells was found to be 32 ± 0.5%.
For the compound `NC(=O)c1ccc2cccc3c2c1C(=O)C=C3` [Compound 19, 1-oxo-1H-phenalene-9-carboxamide], the “antiplasmodium activity (in words)” value in experiment [2] is “neither the 2-cyano compound (20) nor the 9-amido compound (19) were active, even at 10 µM”. Besides, the IC50 in experiment [1] (setting [3]) was over 10 µM. Moreover, the inhibition at 10 µM with MCF-7 cells was 0%.
As to `N#CC1=Cc2cccc3cccc(c23)C1=O` [Compound 20, 1-oxo-1H-phenalene-2-carbonitrile], the “antiplasmodium activity (in words)” value in experiment [2] is reported as “neither the 2-cyano compound (20) nor the 9-amido compound (19) were active, even at 10 µM”. Moreover, the IC50 in experiment [1] (setting [3]) is over 10 µM. Further, the inhibition at 10 µM with MCF-7 cells worked out at 11 ± 0.2%.
For the compound `O=C1C(Nc2ccc(Cl)cc2)=Cc2cccc3cccc1c23` [Compound 22, 2-[(4-chloroanilino]-1H-phenalen-1-one], the IC50 in experiment [1] (setting [3]) was over 10 µM. In the experiment with MCF-7 cells, the inhibition at 10 µM amounted to 42 ± 0.1%.
As for `COc1ccc(NC2=Cc3cccc4cccc(c34)C2=O)cc1` [Compound 23, 2-(4-methoxyanilino)-1H-phenalen-1-one], in experiment [1] (setting [3]), the IC50 is over 10 µM. The inhibition at 10 µM with MCF-7 cells was found to be 12 ± 0.6%.
The corresponding values for `O=C1C(Nc2ncccn2)=Cc2cccc3cccc1c23` [Compound 25, 2-(pyrimidin-2-ylamino)-1H-phenalen-1-one] are over 10 µM and 16 ± 0.9%.
For the compound `O=C1C=Cc2c(O)ccc3ccc(O)c1c23` [Compound 30, 4,9-dihydroxy-1H-phenalen-1-one], in experiment [2], the “antiplasmodium activity (in words)” value is “diminished antiplasmodium activity”. The IC50 in experiment [1] (setting [3]) is over 10 µM. Also, in the experiment on MCF-7 cells, the inhibition at 10 µM stood at 16 ± 0.4%.
The corresponding values for `CCOC(=O)c1cc2cccc3c2c(c1O)C(=O)C=C3` [Compound 33, ethyl 9-hydroxy-1-oxo-1H-phenalene-8-carboxylate] are “lost”, over 10 µM and 0%.
As to `O=C(O)c1cc2cccc3c2c(c1O)C(=O)C=C3` [Compound 34, 9-hydroxy-1-oxo-1H-phenalene-8-carboxylic acid], the “antiplasmodium activity (in words)” value in experiment [2] is reported as “lost”. Also, in experiment [1] (setting [3]), the 50% inhibitory concentration (IC50) was over 10 µM. The inhibition at 10 µM with MCF-7 cells is 0%.
Taken in the same sequence, the figures for `O=C1C=Cc2cccc3cncc1c23` [Compound 35, 4H-benzo[de]isoquinolin-4-one] were “complete loss of activity”, over 10 µM and 7 ± 0.1%.
On to `COc1ccc2c3c(cncc13)C(=O)C=C2` [Compound 36, 9-methoxy-4H-benzo[de]isoquinolin-4-one], for which the half-maximal inhibitory concentration (IC50) in experiment [1] (setting [3]) is over 10 µM. In addition, in the experiment with MCF-7 cells, the inhibition at 10 µM is 5 ± 0.9%.
As to “N-(1-oxo-1H-phenalene-2-yl)carboxamide [Compound 21]”, the half-maximal inhibitory concentration (IC50) in experiment [1] (FCR3 strain) was over 10 µM. Moreover, in the experiment on MCF-7 cells, the “MCF-7 % Inh ± DS (10 μM)” value is 8 ± 0.3%.

As usually defined, the IC50 is the concentration at which inhibition is half-maximal.
